Test results: patent publication US9296711B2, “Substituted isoxazole amide compounds as inhibitors of stearoyl-CoA desaturase 1 (SCD1)” (Hoffman-La Roche Inc., priority 2012, dated 2016)

Biological target: T1, SCD1 (Mus musculus, UniProt P13516)
T1 construct: Mouse liver microsomes, prepared from mice fed a high-carbohydrate diet, were a source of the SCD; from tissue; host or cells: mouse liver microsomes (mice fed a high-carbohydrate diet)
T1 sequence (P13516 1-355): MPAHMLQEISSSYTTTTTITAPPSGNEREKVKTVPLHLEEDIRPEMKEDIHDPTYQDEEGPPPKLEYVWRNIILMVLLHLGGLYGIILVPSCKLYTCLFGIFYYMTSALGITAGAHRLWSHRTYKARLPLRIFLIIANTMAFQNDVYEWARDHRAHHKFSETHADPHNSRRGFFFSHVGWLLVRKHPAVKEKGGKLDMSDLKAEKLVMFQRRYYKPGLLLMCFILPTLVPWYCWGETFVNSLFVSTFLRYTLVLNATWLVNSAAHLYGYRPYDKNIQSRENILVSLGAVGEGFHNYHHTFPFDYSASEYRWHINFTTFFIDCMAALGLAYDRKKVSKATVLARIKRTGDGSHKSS
Assay: SCD assay: release of tritiated water from desaturation of 9,10-3H-stearoyl CoA by mouse liver microsomes
Format: biochemical
Settings: mouse liver microsomes as SCD source; 300 nM (9,10)3H-stearoyl CoA; 25 minutes at room temperature; read-out: IC50 (in vitro inhibition of SCD1)
Source text: Stearoyl CoA desaturase activity was monitored by a modification of the acyl carrier protein assay described by B. R. Talamo and K. Bloch in Anal. Biochem. 1968, 29, 300-304. The SCD assay monitors the release of tritiated water from the desaturation of 9,10-^3H-stearoyl CoA.
Mouse liver microsomes, prepared from mice fed a high-carbohydrate diet, were a source of the SCD and cyt b5 and cyt b5 reductase, necessary accessory proteins for the coupled reaction. Reaction mixtures for compound titrations contained 50 mM Tris HCl pH 7.5, 100 mM NaCl, 0.165 mg/ml BSA, 2.4% DMSO, 1 mM NADH, 0.03% T-20, and 300 nM (9,10)^3H-stearoyl CoA (Perkin-Elmer). Reactions were initiated upon the addition of 4 ug/ml SCD microsomes. Incubations were terminated after 25 minutes at room temperature with cold 6% TCA. After standing 10 minutes at 4° C., samples were centrifuged 15 minutes at 4000 rpm to pellet precipitated protein. Supernatants were added to microtiter plates containing suspensions of activated charcoal (Darco G-60, Fisher Scientific) and mixed by inversion. Plates were then centrifuged to separate ^3H—H2O product from charcoal-bound reactants. Supernatants were quantitated in a Perkin Elmer Topcount 384 after solubilization in ScintiSafe Plus 50% (Fisher Scientific).
Inhibition (%) of SCD activity by compounds was calculated according to the following formula: % Inhibition=100*[1−(CPMsample−CPMblank)/(CPMtotal−CPMblank)]

SMILES | IC50 [µM]
NC(=O)c1cc(-c2ccc(OCc3cccc(F)c3)cc2)no1 [Example 16, 3-[4-(3-Fluoro-benzyloxy)-phenyl]-isoxazole-5-carboxylic acid amide] | 0.45
N#Cc1ccccc1OCc1ccc(-c2cc(C(N)=O)on2)cc1 [Example 37, 3-[4-(2-Cyano-phenoxymethyl)-phenyl]-isoxazole-5-carboxylic acid amide] | 0.31
Cc1cccnc1OCc1ccc(-c2cc(C(N)=O)on2)cc1 [Example 38, 3-[4-(3-Methyl-pyridin-2-yloxymethyl)-phenyl]-isoxazole-5-carboxylic acid amide] | 0.35
NC(=O)c1cc(-c2ccc(COc3ccccc3F)cc2)no1 [Example 39, 3-[4-(2-Fluoro-phenoxymethyl)-phenyl]-isoxazole-5-carboxylic acid amide] | 0.51
Cc1ccc(Cl)cc1OCc1ccc(-c2cc(C(N)=O)on2)cc1 [Example 40, 3-[4-(5-Chloro-2-methyl-phenoxymethyl)-phenyl]-isoxazole-5-carboxylic acid amide] | 0.14
Cc1c(Cl)cccc1OCc1ccc(-c2cc(C(N)=O)on2)cc1 [Example 41, 3-[4-(3-Chloro-2-methyl-phenoxymethyl)-phenyl]-isoxazole-5-carboxylic acid amide] | 0.39
Cc1cc(F)ccc1OCc1ccc(-c2cc(C(N)=O)on2)cc1 [Example 42, 3-[4-(4-Fluoro-2-methyl-phenoxymethyl)-phenyl]-isoxazole-5-carboxylic acid amide] | 0.28
Cc1ccc(F)cc1OCc1ccc(-c2cc(C(N)=O)on2)cc1 [Example 43, 3-[4-(5-Fluoro-2-methyl-phenoxymethyl)-phenyl]-isoxazole-5-carboxylic acid amide] | 0.055
Cc1ncccc1OCc1ccc(-c2cc(C(N)=O)on2)cc1 [Example 44, 3-[4-(2-Methyl-pyridin-3-yloxymethyl)-phenyl]-isoxazole-5-carboxylic acid amide] | 1.1
NC(=O)c1cc(-c2ccc(CN3CCc4ccccc43)cc2)no1 [Example 45, 3-[4-(2,3-Dihydro-indol-1-ylmethyl)-phenyl]-isoxazole-5-carboxylic acid amide] | 0.031
NC(=O)c1cc(-c2ccc(CN3Cc4ccccc4C3)cc2)no1 [Example 46, 3-[4-(1,3-Dihydro-isoindol-2-ylmethyl)-phenyl]-isoxazole-5-carboxylic acid amide] | 2.8
NC(=O)c1cc(-c2ccc(Cn3ccc4ccccc43)cc2)no1 [Example 47, 3-(4-Indol-1-ylmethyl-phenyl)-isoxazole-5-carboxylic acid amide] | 0.017
NC(=O)c1cc(-c2ccc(Cn3nnc4ccccc43)cc2)no1 [Example 48, 3-(4-Benzotriazol-1-ylmethyl-phenyl)-isoxazole-5-carboxylic acid amide] | 0.23
NC(=O)c1cc(-c2ccc(Cn3cnc4ccccc43)cc2)no1 [Example 49, 3-(4-Benzoimidazol-1-ylmethyl-phenyl)-isoxazole-5-carboxylic acid amide] | 0.072
NC(=O)c1cc(-c2ccc(Cn3ncc4ccccc43)cc2)no1 [Example 50, 3-(4-Indazol-1-ylmethyl-phenyl)-isoxazole-5-carboxylic acid amide] | 0.074
NC(=O)c1cc(-c2ccc(Cn3cc4ccccc4n3)cc2)no1 [Example 51, 3-(4-Indazol-2-ylmethyl-phenyl)-isoxazole-5-carboxylic acid amide] | 0.047
NC(=O)c1cc(-c2ccc(CN3CCCc4ccccc43)cc2)no1 [Example 52, 3-[4-(3,4-Dihydro-2H-quinolin-1-ylmethyl)-phenyl]-isoxazole-5-carboxylic acid amide] | 0.024
CC1Cc2ccccc2N1Cc1ccc(-c2cc(C(N)=O)on2)cc1 (stereo not drawn) [Example 53, 3-[4-(2-Methyl-2,3-dihydro-indol-1-ylmethyl)-phenyl]-isoxazole-5-carboxylic acid amide] | 0.1
Cc1cccc2c1ccn2Cc1ccc(-c2cc(C(N)=O)on2)cc1 [Example 54, 3-[4-(4-Methyl-indol-1-ylmethyl)-phenyl]-isoxazole-5-carboxylic acid amide] | 0.22
NC(=O)c1cc(-c2ccc(OCc3ccccc3C(F)(F)F)c(Cl)c2)no1 [Example 55, 3-[3-Chloro-4-(2-trifluoromethyl-benzyloxy)-phenyl]-isoxazole-5-carboxylic acid amide] | 2.7

Tested on: not given
Assay: not given
Settings: not given

SMILES | melting point [°C]
NC(=O)c1cc(-c2ccc(OCc3cccc(F)c3)cc2)no1 [Example 16, 3-[4-(3-Fluoro-benzyloxy)-phenyl]-isoxazole-5-carboxylic acid amide] | 221 to 222
